Consider one molecule from patent publication US20220023306A1, “USE OF A PPAR-DELTA AGONIST IN THE TREATMENT OF FATTY ACID OXIDATION DISORDERS (FAOD)” (Reneo Pharmaceuticals, Inc., priority 2019, published 2022).

In data set [1] the test system is very long-chain acyl-CoA dehydrogenase (VLCAD). The data set is described as follows: VLCAD enzymatic activity in cultured fibroblasts from symptomatic VLCAD-deficient FAOD patients (ETF fluorescence reduction ACAD activity assay). The note with it: cultured fibroblasts from symptomatic patients with VLCAD deficiency. In kind it is cell-based, human. On the procedure:
Subjects. Skin biopsies for fibroblast culture are performed on a clinical basis with written informed consent from subjects and/or legal guardians. Fibroblast cells with mutations in any one of the genes and/or proteins associated with a fatty acid oxidation disorder (FAOD) ae obtained from patients' skin biopsies, while wild type (WT) fibroblast cells are obtained from healthy individuals.
Fibroblast cells, in some cases, are obtained from subjects with a confirmed diagnosis of a fatty acid oxidation disorder (FAOD) (e.g. MCAD, VLCAD, CPT1, CACT, CPT2, LCHAD, and/or mitochondrial TFP deficiencies or mutations) or they, in some cases, are purchased is available from commercial sources, e.g. from the Coriell Institute for Medical Research (403 Haddon Avenue, Camden, N.J. 08103).
Cell culture and treatments. Cells are grown in Dulbecco's Modified Eagle Medium (DMEM), Corning Life Sciences, Manassas, Va., containing high glucose levels or in DMEM devoid of glucose for 48-72 hr. Both media are supplemented with fetal bovine serum, glutamine, penicillin and/or streptomycin. In some experiments, fibroblasts are incubated with N-acetylcysteine, resveratrol, mitoQ, Trolox (a hydro-soluble analogue of vitamin E), or bezafibrate, prior to the analysis of parameters.
A PPARδ agonist compound is dissolved in phosphate buffer saline, PBS, as a stock solution. […]

The test system of data set [2] is PPARδ regulated genes (CPT1b, PGC1α). Nature of the data set: expression of PPARδ regulated genes in vivo.
For the next data set, the system named is subjects with FAOD. The data set is described as follows: FAOD clinical trial with Compound 1. It counts as in vivo, human. As for the experimental part: In some embodiments, outcome measures are assessed with tests that assess exercise tolerance. In some embodiments, exercise tolerance is assessed with exercise tests. Exercise tests include, but are not limited to, submaximal treadmill, walking tests (e.g. without limitation, 6 minute; 12 minute walks), run tests, treadmill and ergometry exercise testing. In some embodiments, exercise tests are used in combination with the Borg Scale of perceived exertion. In some embodiments, exercise tests are performed according to guidelines set forth by the American Thoracic Society (ATS).
In some embodiments, stable isotope methods are used to measure in vivo residual fatty acid oxidation capacity. Enrichment of ^13CO2 only occurs by one complete round of fatty acid oxidation. A representative protocol is as follows. A fasting blood sample is obtained after an overnight fast. Prior to breakfast, a resting indirect calorimetry is measured. Subjects are then given a meal (e.g a shake) containing 17-mg/kg ^13C-oleic acid. Breath samples are collected prior to (time 0) and again hourly at 1, 2, 3, 4, 5, 6, 7, and 8 hours following the ^13C-oleic administration. ^13C in breath samples are measured as a ratio of ^13C/^12C using the Delta Plus IRMS (Finnigan MAT, Bremen, Germany). Recovery is calculated as ^13C divided by the dose of ^13C administered. The amount of excess ^13C in breath is a measure of residual fatty acid oxidation capacity in subjects with disorders of long-chain fatty acid oxidation.
In some embodiments, improvements in fatty acid oxidation in subjects with a FAOD that are treated with a PPARδ agonist compound described herein (e.g. Compound 1, or a pharmaceutically acceptable salt thereof) are measured with a suitable ^13CO2 breath sample test. In some embodiments, a suitable ^13CO2 breath sample test comprises the steps of: 1) providing the subject a meal comprising ^13C-enriched fatty acid(s); 2) administering to the subject a PPARδ agonist compound, or a pharmaceutically acceptable salt thereof, after the consumption of the meal; and 3) collecting breath samples from the subject at regular intervals and measuring the relative amount of ^13CO2 to ^12CO2 in the breath samples. In some embodiments, the breath samples are collected about every hour. In some embodiments, the meal is enriched with a 13C labeled fatty acid, wherein the fatty acid is butyric acid, caproic acid, caprylic acid, capric acid, lauric acid, myristic acid, palmitic acid, stearic acid, arachidic acid, behenic acid, lignoceric acid, caproleic acid, lauroleic acid, myristoleic acid, palmitoleic acid, oleic acid, elaidic acid, vaccenic acid, gadoleic acid, erucic acid, brassidic acid, nervonic acid, linoleic acid, alpha-linolenic acid, gamma-linolenic acid, columbinic acid, stearidonic acid, mead acid, dihomo-γ-linolenic acid, arachidonic acid, eicosapentaenoic acid, docosapentaenoic acid, or docosahexaenoic acid.
A non-limiting example of a fatty acid oxidation disorder (FAOD) clinical trial in humans is described below. […]

In the next data set the target is T1, LXRβ (Homo sapiens, UniProt P55055).
T1 sequence (P55055 1-460): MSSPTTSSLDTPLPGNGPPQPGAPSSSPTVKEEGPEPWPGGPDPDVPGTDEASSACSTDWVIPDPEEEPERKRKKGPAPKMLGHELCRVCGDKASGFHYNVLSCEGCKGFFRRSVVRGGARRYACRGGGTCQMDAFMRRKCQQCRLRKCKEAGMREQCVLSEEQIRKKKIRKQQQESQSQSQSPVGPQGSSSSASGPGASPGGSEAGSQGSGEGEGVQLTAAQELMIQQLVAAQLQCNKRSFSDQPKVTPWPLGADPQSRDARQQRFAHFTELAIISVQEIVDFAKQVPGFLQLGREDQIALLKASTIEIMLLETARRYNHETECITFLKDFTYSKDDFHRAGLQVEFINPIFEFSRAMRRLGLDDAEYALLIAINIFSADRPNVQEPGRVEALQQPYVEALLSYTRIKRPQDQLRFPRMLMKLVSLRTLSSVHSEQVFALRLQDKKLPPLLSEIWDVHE
Nature of the data set: activity on nuclear receptor LXRβ. In kind it is cell-based.

`Cc1cc(OC/C=C(/c2ccc(F)cc2)c2ccc(C#CCN3CCOCC3)cc2)ccc1OCC(=O)O` [Compound 1, (E)-[4-[3-(4-Fluorophenyl)-3-[4-[3-(morpholin-4-yl)propynyl]phenyl]allyloxy]-2-methyl-phenoxy]acetic acid]: the VLCAD enzymatic activity entry in data set [1] is “increased”. For the same molecule, in data set [2], the “expression pattern of CPT1b (fatty acid metabolism)” value was “altered the expression patterns” and the “expression pattern of PGC1α (mitochondrial biogenesis)” value was “altered the expression patterns”. Moreover, in the data set on subjects with FAOD (50 mg once daily for 12 weeks), the exercise capacity entry is “Improvements”, the “exhaled 13CO2” value is “trend towards increases” and the “heart rate during the last ten minutes of exercise” value is “decreases”. In addition, in the data set with subjects with FAOD (50 mg once daily for 12 weeks, FIG. 1), the “distance walked during a 12-minute walk test” value is given as “increase”. For the same molecule, the tolerability result in the data set on subjects with FAOD (subjects that participated in the study) is “well tolerated”. The “activity on LXRβ” value on LXRβ was “did not show any”.
